Calls of active or inactive are those of the source. The rule behind the calls is not given here.
Experiments:
[1] = Cytotoxicity against mouse BV-2 cells assessed as cell viability at 5 uM incubated for 24 hrs by MTT assay relative to control; type: toxicity, cell-based; conditions: read-out: Activity
[2] = Inhibition of LPS-induced NO production in mouse BV-2 cells at 5 uM incubated for 24 hrs by Griess reagent based method relative to control; type: functional
[3] = Cytotoxicity against mouse BV-2 cells assessed as cell viability at 10 uM incubated for 24 hrs by MTT assay relative to control; type: toxicity, cell-based; conditions: read-out: Activity
[4] = Inhibition of LPS-induced NO production in mouse BV-2 cells incubated for 24 hrs by Griess reagent based method; type: functional, cell-based; conditions: BV-2, 24 h
[5] = Inhibition of LPS-induced NO production in mouse BV-2 cells at 10 uM incubated for 24 hrs by Griess reagent based method relative to control; type: functional
BV-2 [6] = experiment: Antiinflammatory activity in LPS-induced mouse BV-2 cells assessed as reduction in COX-2 protein expression pretreated for 1 hr followed by LPS stimulation and measured after 18 hrs by Western blot analysis; type: functional, cell-based; conditions: dose 5-20 µM, time 19.0 hrs
BV-2 [7] = experiment: Inhibition of NF-kappaB activation in LPS-stimulated mouse BV-2 cells assessed as reduction in phosphorylated IkappaB-alpha level pretreated for 30 mins followed by LPS stimulation by Western blot analysis; type: cell-based; conditions: dose 5-20 µM
BV-2 [8] = experiment: Inhibition of NF-kappaB activation in LPS-stimulated mouse BV-2 cells assessed as reduction in phosphorylated p65 level pretreated for 30 mins followed by LPS stimulation by Western blot analysis; type: cell-based; conditions: dose 5-20 µM
BV-2 [9] = experiment: Antiinflammatory activity in LPS-induced mouse BV-2 cells assessed as reduction in COX-2 mRNA expression pretreated for 1 hr followed by LPS stimulation and measured after 6 hrs by RT-PCR analysis; type: functional, cell-based; conditions: dose 5-20 µM, time 7.0 hrs
BV-2 [10] = experiment: Antiinflammatory activity in LPS-induced mouse BV-2 cells assessed as reduction in IL-6 mRNA expression pretreated for 1 hr followed by LPS stimulation and measured after 6 hrs by RT-PCR analysis; type: functional, cell-based; conditions: dose 5-20 µM, time 7.0 hrs
BV-2 [11] = experiment: Antiinflammatory activity in LPS-induced mouse BV-2 cells assessed as reduction in iNOS mRNA expression pretreated for 1 hr followed by LPS stimulation and measured after 6 hrs by RT-PCR analysis; type: functional, cell-based; conditions: dose 5-20 µM, time 7.0 hrs
[12] = target: c-Jun N-terminal kinase (Mus musculus) (UniProt Q91Y86+Q9WTU6+Q61831); experiment: Inhibition of LPS-induced JNK phosphorylation in mouse BV-2 cells at 5 to 20 uM pretreated for 30 mins followed by LPS stimulation by Western blot analysis; type: cell-based; conditions: dose 5-20 µM
Sequence of c-Jun N-terminal kinase (Mus musculus) (Q61831 whole entry, looked up): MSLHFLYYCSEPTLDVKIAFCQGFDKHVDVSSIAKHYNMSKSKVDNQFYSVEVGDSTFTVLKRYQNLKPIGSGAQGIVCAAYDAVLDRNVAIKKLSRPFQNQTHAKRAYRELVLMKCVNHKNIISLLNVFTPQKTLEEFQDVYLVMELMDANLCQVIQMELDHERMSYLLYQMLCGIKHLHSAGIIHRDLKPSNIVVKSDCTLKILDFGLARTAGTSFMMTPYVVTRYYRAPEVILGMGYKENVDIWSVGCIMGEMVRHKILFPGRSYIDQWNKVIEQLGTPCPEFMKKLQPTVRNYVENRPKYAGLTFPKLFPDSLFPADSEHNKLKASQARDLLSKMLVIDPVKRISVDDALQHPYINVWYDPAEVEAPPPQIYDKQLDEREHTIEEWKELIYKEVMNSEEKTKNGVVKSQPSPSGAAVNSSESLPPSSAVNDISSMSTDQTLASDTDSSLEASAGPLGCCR
Sequence of c-Jun N-terminal kinase (Mus musculus) (Q91Y86 whole entry, looked up): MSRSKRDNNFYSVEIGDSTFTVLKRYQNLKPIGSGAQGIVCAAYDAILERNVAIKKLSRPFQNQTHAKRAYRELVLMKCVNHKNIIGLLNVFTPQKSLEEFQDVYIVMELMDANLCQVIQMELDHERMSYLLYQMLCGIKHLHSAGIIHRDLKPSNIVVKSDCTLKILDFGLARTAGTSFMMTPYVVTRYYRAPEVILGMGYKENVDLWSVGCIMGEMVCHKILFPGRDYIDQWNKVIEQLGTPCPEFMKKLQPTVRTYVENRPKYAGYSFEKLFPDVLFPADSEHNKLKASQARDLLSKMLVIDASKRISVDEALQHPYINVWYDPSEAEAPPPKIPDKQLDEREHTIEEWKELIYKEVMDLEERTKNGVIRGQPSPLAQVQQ
Sequence of c-Jun N-terminal kinase (Mus musculus) (Q9WTU6 whole entry, looked up): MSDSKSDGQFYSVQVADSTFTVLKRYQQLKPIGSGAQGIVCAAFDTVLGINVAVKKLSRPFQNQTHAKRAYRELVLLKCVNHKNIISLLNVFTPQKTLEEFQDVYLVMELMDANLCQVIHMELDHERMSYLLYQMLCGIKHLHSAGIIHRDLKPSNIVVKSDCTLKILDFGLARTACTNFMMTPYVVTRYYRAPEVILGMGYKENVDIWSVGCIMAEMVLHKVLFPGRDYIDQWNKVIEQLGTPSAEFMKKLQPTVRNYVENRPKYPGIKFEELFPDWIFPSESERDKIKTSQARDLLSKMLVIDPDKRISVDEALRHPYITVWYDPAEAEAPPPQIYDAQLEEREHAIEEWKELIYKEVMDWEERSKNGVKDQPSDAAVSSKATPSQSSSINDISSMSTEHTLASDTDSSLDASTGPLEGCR

BV-2 [13] = experiment: Antiinflammatory activity in LPS-induced mouse BV-2 cells assessed as reduction in iNOS protein expression pretreated for 1 hr followed by LPS stimulation and measured after 18 hrs by Western blot analysis; type: functional, cell-based; conditions: dose 5-20 µM, time 19.0 hrs
BV-2 [14] = experiment: Inhibition of LPS-induced ERK phosphorylation in mouse BV-2 cells pretreated for 30 mins followed by LPS stimulation by Western blot analysis; type: cell-based; conditions: dose 5-20 µM
BV-2 [15] = experiment: Antiinflammatory activity in LPS-induced mouse BV-2 cells assessed as reduction in IL-1beta mRNA expression pretreated for 1 hr followed by LPS stimulation and measured after 6 hrs by RT-PCR analysis; type: functional, cell-based; conditions: dose 5-20 µM, time 7.0 hrs
BV-2 [16] = experiment: Antiinflammatory activity in LPS-induced mouse BV-2 cells assessed as reduction in TNF-alpha mRNA expression pretreated for 1 hr followed by LPS stimulation and measured after 6 hrs by RT-PCR analysis; type: functional, cell-based; conditions: dose 5-20 µM, time 7.0 hrs
[17] = target: MAP kinase p38 (Mus musculus) (UniProt P47811+O08911+Q9WUI1+Q9Z1B7); experiment: Inhibition of LPS-induced p38 phosphorylation in mouse BV-2 cells at 5 to 20 uM pretreated for 30 mins followed by LPS stimulation by Western blot analysis; type: cell-based; conditions: dose 5-20 µM

## Cc1c(C(=O)C(=O)NC2CCCCCC2)nn(-c2ccc(Cl)cc2Cl)c1-c1ccc(Cl)cc1
[1]
  viability at 24 h, 5 µM: < 80%

## Cc1c(C(=O)C(=O)N2CCCCCC2)nn(-c2ccc(Cl)cc2Cl)c1-c1ccc(Cl)cc1
[1]
  viability at 24 h, 5 µM: < 80%

## Cc1c(C(=O)C(=O)NCCCO)nn(-c2ccc(Cl)cc2Cl)c1-c1ccc(Cl)cc1
[1]
  viability at 24 h, 5 µM: < 80%

## CCCCNC(=O)C(=O)c1nn(-c2ccc(Cl)cc2Cl)c(-c2ccc(Cl)cc2)c1C
[1]
  viability at 24 h, 5 µM: < 80%

## Cc1c(C(=O)C(=O)N2CCNCC2)nn(-c2ccc(Cl)cc2Cl)c1-c1ccc(Cl)cc1
[1]
  viability at 24 h, 5 µM: < 80%

## CCCNC(=O)C(=O)c1nn(-c2ccc(Cl)cc2Cl)c(-c2ccc(Cl)cc2)c1C
[1]
  viability at 24 h, 5 µM: < 80%

## Cc1c(C(=O)NN2CCCCC2)nn(-c2ccc(Cl)cc2Cl)c1-c1ccc(Cl)cc1 [RIMONABANT]
[2]
  inhibition at 5 µM: 21.2%
[3]
  viability at 24 h, 10 µM: 91.2%
[1]
  viability at 24 h, 5 µM: 99.3%
[4]
  IC50: 16.2 µM
[5]
  inhibition at 10 µM: 43.9%

## Cc1c(C(=O)C(=O)N2CCOCC2)nn(-c2ccc(Cl)cc2Cl)c1-c1ccc(Cl)cc1
BV-2 [6]
  Activity: Dose-Dependent Effect
BV-2 [7]
  inhibition: Dose-Dependent Effect
[2]
  inhibition at 5 µM: 26.1%
BV-2 [8]
  inhibition: Dose-Dependent Effect
[3]
  viability at 24 h, 10 µM: 98.7%
BV-2 [9]
  Activity: Dose-Dependent Effect
BV-2 [10]
  Activity: Dose-Dependent Effect
BV-2 [11]
  Activity: Dose-Dependent Effect
[1]
  viability at 24 h, 5 µM: 98%
[12]
  inhibition: inactive
[4]
  IC50: 4.71 µM
BV-2 [13]
  Activity: Dose-Dependent Effect
BV-2 [14]
  inhibition: Dose-Dependent Effect
BV-2 [15]
  Activity: Dose-Dependent Effect
BV-2 [16]
  Activity: Dose-Dependent Effect
[17]
  inhibition: inactive
[5]
  inhibition at 10 µM: 49.7%

## Cc1c(C(=O)C(=O)NC(C)(C)C)nn(-c2ccc(Cl)cc2Cl)c1-c1ccc(Cl)cc1
[1]
  viability at 24 h, 5 µM: < 80%

## Cc1c(C(=O)C(=O)NN2CCCCC2)nn(-c2ccc(Cl)cc2Cl)c1-c1ccc(Cl)cc1
[1]
  viability at 24 h, 5 µM: < 80%

## CCCCCCCCNC(=O)C(=O)c1nn(-c2ccc(Cl)cc2Cl)c(-c2ccc(Cl)cc2)c1C
[1]
  viability at 24 h, 5 µM: < 80%

## Cc1c(C(=O)C(=O)NC2CCC(O)CC2)nn(-c2ccc(Cl)cc2Cl)c1-c1ccc(Cl)cc1 (stereo unspecified)
[1]
  viability at 24 h, 5 µM: < 80%

## CCCCCNC(=O)C(=O)c1nn(-c2ccc(Cl)cc2Cl)c(-c2ccc(Cl)cc2)c1C
[1]
  viability at 24 h, 5 µM: < 80%

## CCCCCCNC(=O)C(=O)c1nn(-c2ccc(Cl)cc2Cl)c(-c2ccc(Cl)cc2)c1C
[1]
  viability at 24 h, 5 µM: < 80%

## Cc1c(C(=O)C(=O)N2CCCC2)nn(-c2ccc(Cl)cc2Cl)c1-c1ccc(Cl)cc1
[1]
  viability at 24 h, 5 µM: < 80%

## Cc1c(C(=O)C(=O)NC(C)C)nn(-c2ccc(Cl)cc2Cl)c1-c1ccc(Cl)cc1
[1]
  viability at 24 h, 5 µM: < 80%

## Cc1c(C(=O)C(=O)NC23CC4CC(CC(C4)C2)C3)nn(-c2ccc(Cl)cc2Cl)c1-c1ccc(Cl)cc1
[1]
  viability at 24 h, 5 µM: < 80%

## CCCCCCCNC(=O)C(=O)c1nn(-c2ccc(Cl)cc2Cl)c(-c2ccc(Cl)cc2)c1C
[1]
  viability at 24 h, 5 µM: < 80%

## Cc1c(C(=O)C(=O)N2CCCCC2)nn(-c2ccc(Cl)cc2Cl)c1-c1ccc(Cl)cc1
[2]
  inhibition at 5 µM: 20.3%
[3]
  viability at 24 h, 10 µM: 80%
[1]
  viability at 24 h, 5 µM: 98.2%
[4]
  IC50: 5.82 µM
[5]
  inhibition at 10 µM: 50.1%

## Cc1c(C(=O)C(=O)NCCO)nn(-c2ccc(Cl)cc2Cl)c1-c1ccc(Cl)cc1
[2]
  inhibition at 5 µM: 62.8%
[3]
  viability at 24 h, 10 µM: 93.6%
[1]
  viability at 24 h, 5 µM: 94.2%
[4]
  IC50: 5.08 µM
[5]
  inhibition at 10 µM: 73.4%

## Cc1c(C(=O)C(=O)N2CCN(C)CC2)nn(-c2ccc(Cl)cc2Cl)c1-c1ccc(Cl)cc1
[2]
  inhibition at 5 µM: 38.1%
[3]
  viability at 24 h, 10 µM: ≤ 80%
[1]
  viability at 24 h, 5 µM: 95.2%
[5]
  inhibition at 10 µM: 48%

## CCNC(=O)C(=O)c1nn(-c2ccc(Cl)cc2Cl)c(-c2ccc(Cl)cc2)c1C
[2]
  inhibition at 5 µM: 63.7%
[3]
  viability at 24 h, 10 µM: < 80%
[1]
  viability at 24 h, 5 µM: 86.4%

## Cc1c(C(=O)C(=O)NC2CCCCC2)nn(-c2ccc(Cl)cc2Cl)c1-c1ccc(Cl)cc1
[2]
  inhibition at 5 µM: 87.4%
[3]
  viability at 24 h, 10 µM: < 80%
[1]
  viability at 24 h, 5 µM: 96.8%

## Cc1c(C(=O)C(=O)N2CCC(O)CC2)nn(-c2ccc(Cl)cc2Cl)c1-c1ccc(Cl)cc1
[1]
  viability at 24 h, 5 µM: < 80%

## Cc1c(C(=O)C(=O)N2CCSCC2)nn(-c2ccc(Cl)cc2Cl)c1-c1ccc(Cl)cc1
[2]
  inhibition at 5 µM: 13.5%
[3]
  viability at 24 h, 10 µM: 96.5%
[1]
  viability at 24 h, 5 µM: 99.6%
[4]
  IC50: 5.28 µM
[5]
  inhibition at 10 µM: 58.3%

## Cc1c(C(=O)C(=O)NC2CCCC2)nn(-c2ccc(Cl)cc2Cl)c1-c1ccc(Cl)cc1
[1]
  viability at 24 h, 5 µM: < 80%

## Cc1c(C(=O)C(=O)NCC(C)C)nn(-c2ccc(Cl)cc2Cl)c1-c1ccc(Cl)cc1
[1]
  viability at 24 h, 5 µM: < 80%

From ChEMBL document CHEMBL5223139, “Synthesis of 1-(5-(4-chlorophenyl)-1-(2,4-dichlorophenyl)-4-methyl-1H-pyrazol-3-yl)-2-morpholinoethane-1,2-dione analogues and their inhibitory activities with reduced cytotoxicity in lipopolysaccharide-induced BV2 cells” (Bioorg Med Chem Lett, 2023)
